Test results reported in US20060263346A1, “Combined pharmaceutical preparations for the treatment of cancer, containing glutaminase and antineoplastic anthracyclines or platinum compounds” (priority 2003, published 2006).

Key:
Assay type in all cases: cell-based
[1] = test system: breast tumor (MCF7) cells; test: Sulforhodamine in vitro cell growth test, breast tumor cells MCF7; conditions: 48 h
Method: (§1) Cell lines from tumors of the breast (MCF7), lung (NCI-H460, A549), colon (SW-60, HT29) and CNS (SF-539) were used for the test. The tumor cells were cultured in RPMI 1640 medium containing 7.5% foetal calf serum at 37° C. and 5% CO2. After the cells had grown for 24 hours, they were incubated with the substances to be tested for 48 hours.
(§2) The antineoplastic agents used for the experiments were obtained from Sigma in cell culture quality.
(§3) A Pseudomonas 7A glutaminase-asparaginase modified with polyethylene glycol (DE 41 40 003 A1, WO 94/13817 A1 and WO 02/31498 A2) was used as the glutaminase.
(§4) After a 48 hour incubation period cell growth was determined by means of the absorption of the bound sulforhodamine dye at 575 nm. The percentage growth was calculated as follows: [formula] in which PW denotes percentage growth, C denotes untreated control cells, T denotes the amount of treated cells and the indices 0 and t denote the amount of cells at time 0 and after 48 hours.

colon tumor (HT29) cells = test: Sulforhodamine in vitro cell growth test, colon tumor cells HT29; conditions: 2 μg/ml cis-platinum alone, 48 h
Method: as §1, §2, §3, §4

lung tumor (A549) cells = test: Sulforhodamine in vitro cell growth test, lung tumor cells A549; conditions: 48 h
Method: as §1, §2, §3, §4

[2] = test system: lung tumor (NCI-H23) cells; test: Sulforhodamine in vitro cell growth test, lung tumor cells NCI-H23; conditions: 48 h
Method: as §1, §2, §3, §4

Compound N.N.[Cl][Pt][Cl] [Cis-platinum, cis-platinum] has a tumor cell growth ([1]; 2 μg/ml cis-platinum alone) of 86%, a tumor cell growth (colon tumor (HT29) cells) of 65% and a tumor cell growth (lung tumor (A549) cells; 2 μg/ml cis-platinum alone) of 41%.
For COc1cc([C@@H]2c3cc4c(cc3[C@@H](O[C@@H]3O[C@@H]5CO[C@@H](C)O[C@H]5[C@H](O)[C@H]3O)[C@H]3COC(=O)[C@H]23)OCO4)cc(OC)c1O [Etoposide, etoposide], the “growth compared to the control” value ([1]; 2.3 μg/ml etoposide alone) was “about 40%”, the “growth compared to the control” value (lung tumor (A549) cells; 2.3 μg/ml etoposide alone) was “about 40%” and the “growth compared to the control” value ([2]; 2.3 μg/ml etoposide alone) was “about 40%”.
Work on N[C@@H](Cc1ccc(N(CCCl)CCCl)cc1)C(=O)O [Melphalan, melphalan] yielded a tumor growth ([2]; 68 μg/ml melphalan alone) of 34%.
For CO[C@@]12[C@H](COC(N)=O)C3=C(C(=O)C(C)=C(N)C3=O)N1C[C@@H]1N[C@@H]12 [Mitomycin, mitomycin], the “growth compared to the control” value ([1]; 0.026 μg/ml mitomycin alone) was 66%.
